System: CHO cell line
Assay: In vitro test of metabolization in CHO cells (steroids in culture medium by GC/MS)
Experimental: In Vitro Test of Metabolization
In this example, CHO cell line was used. These cells derived from the ovary have all the enzymes needed to metabolize pregnenolone in downstream steroids.
The content in CHO culture medium of allopregnanolone (ALLO), epiallopregnanolone (EPIALLO), pregnenolone (PREG), DHEA, and testosterone (TESTO) was measured by GC/MS.
Pregnenolone derivatives having C3 substituted with benzyloxy were tested using in vitro test in CHO cells.
Results expressed as percentage changes from CHO cells treated with Pregnenolone or as pg/ml (0=concentrations below the detection limit).

[1] = CHO culture medium, Pregnenolone 1 μM, 48 hours, GC/MS

Compound | metabolised in Pregnenolone (in words) (CHO cells, Table 2) | Allopregnanolone and Epiallopregnanolone in the culture medium (in words) (CHO cells, 1 μM, 48 hours) | ALLO (allopregnanolone) steroid levels [1] | DHEA steroid levels [1] | EPIALLO (epiallopregnanolone) steroid levels [1] | PREG (pregnenolone) steroid levels [1] | TESTO (testosterone) steroid levels [1]
COc1ccc(CO[C@H]2CC[C@@]3(C)C(=CCC4C3CC[C@@]3(C)C4CC[C@]3(C)C(C)=O)C2)cc1 (stereo partly drawn) [Compound 68, 3β-(p-methoxy- benzyloxy)-17α- methyl- pregnenolone] | not metabolised |  |  |  |  |  | 
CC(=O)[C@H]1CC[C@H]2[C@@H]3CC=C4C[C@@H](O)CC[C@]4(C)[C@H]3CC[C@]12C [Pregnenolone] |  | significant increase | 3529.99 pg/mL | 0.00 pg/mL | 16963.84 pg/mL | 11440.66 pg/mL | 0.00 pg/mL

From patent US9732115B2, “3-(4′-substituted)-benzyl-ether derivatives of pregnenolone” (INSERM (Institut National de la Sante et de la Recherche …, priority 2012, dated 2017)
